Experimental data: patent US20110105623A1 (Biogenic Innovations, LLC, priority 2009, published 2011)
Where “and” joins values, the source holds several entries; their conditions need not be identical. Equal values may be shown once.

Key:
[1] = tested on: Lactobacillus acidophilus; assay: Recovery from Acidophilus milk fortified with MSM into broth without MSM; format: cell-based; conditions: for Lag Recovery of Lactobacillus acidophilus in Milk fortified with MSM Day 28: duplicates
Method: The Acidophilus milk was low fat (Darigold). […] All preparations and plating was conducted at room temperature.
The recovery study was run parallel to the study done on the affects of MSM on growth of Lactobacillus acidophilus in Acidophilus milk fortified with MSM. The recovery growth rate was analyzed on Day 7, Day 14, Day 21 and Day 28. For Table 27, the growth for Day x with no time is calculated from the initial growth study with the dilution factor into the log growth. […] Table 28 takes the value of 2.00 as the starting value.

[2] = tested on: MDCK cells (ATCC # CCL-34); assay: Cytotoxicity of MSM; format: cell-based, Canis; conditions: for Test Product Cytotoxicity (CPE): MDCK
Source text: Determination of test product cytotoxicity.
B. Toxicity Control for Pre-Treatment Test.

Substance: Methylsulfonylmethane [MSM]
- Lag Recovery of Lactobacillus acidophilus in Milk fortified with MSM Day 28 ([1]; 5.0% MSM, Day 28-24): 5.64 logs and 5.48 logs
- Recovery of Lactobacillus acidophilus in Milk fortified with MSM Day 28, average recovery ([1]; 5.0% MSM, Day 28-48): 12.87 logs
- Lag Recovery of Lactobacillus acidophilus in Milk fortified with MSM Day 28 ([1]; 5.0% MSM, Day 28-48): 12.58 logs and 13.16 logs
- Recovery of Lactobacillus acidophilus in Milk fortified with MSM Day 28, average recovery ([1]; 5.0% MSM, Day 28-72): 12.48 logs
- Lag Recovery of Lactobacillus acidophilus in Milk fortified with MSM Day 28 ([1]; 5.0% MSM, Day 28-72): 12.49 logs and 12.47 logs
- Day 7 log recovery growth rate increase from start time of zero ([1]; 5.0% MSM, Hour 0): 0.00 logs
- Day 14 log recovery growth rate increase from start time of zero ([1]; 5.0% MSM, Hour 0): 0.00 logs
- Day 21 log recovery growth rate increase from start time of zero ([1]; 5.0% MSM, Hour 0): 0.00 logs
- Day 7 log recovery growth rate increase from start time of zero ([1]; 5.0% MSM, Hour 24): 4.00 logs
- Day 14 log recovery growth rate increase from start time of zero ([1]; 5.0% MSM, Hour 24): 3.56 logs
- Day 21 log recovery growth rate increase from start time of zero ([1]; 5.0% MSM, Hour 24): 6.13 logs
- Day 7 log recovery growth rate increase from start time of zero ([1]; 5.0% MSM, Hour 48): 0.47 logs
- Day 14 log recovery growth rate increase from start time of zero ([1]; 5.0% MSM, Hour 48): 3.42 logs
- Day 21 log recovery growth rate increase from start time of zero ([1]; 5.0% MSM, Hour 48): 3.39 logs
- Day 7 log recovery growth rate increase from start time of zero ([1]; 5.0% MSM, Hour 72): −0.19 logs
- Day 14 log recovery growth rate increase from start time of zero ([1]; 5.0% MSM, Hour 72): −0.59 logs
- Day 21 log recovery growth rate increase from start time of zero ([1]; 5.0% MSM, Hour 72): 0.08 logs
- Day 28 log recovery growth rate increase from start time of zero ([1]; 5.0% MSM, Time 0): 0.00 logs
- Day 28 log recovery growth rate increase from start time of zero ([1]; 5.0% MSM, Time 24): 5.04 logs
- Day 28 log recovery growth rate increase from start time of zero ([1]; 5.0% MSM, Time 48): 7.31 logs
- Day 28 log recovery growth rate increase from start time of zero ([1]; 5.0% MSM, Time 72): −0.39 logs
- Recovery of Lactobacillus acidophilus in Milk fortified with MSM Day 7, initial start data ([1]; […] MSM, Day 7): 8.50 logs
- Recovery of Lactobacillus acidophilus in Milk fortified with MSM Day 7, average recovery ([1]; […] MSM, Day 7-24): 13.16 logs
- Recovery of Lactobacillus acidophilus in Milk fortified with MSM Day 7, average recovery ([1]; […] MSM, Day 7-48): 12.36 logs
- Recovery of Lactobacillus acidophilus in Milk fortified with MSM Day 7, average recovery ([1]; […] MSM, Day 7-72): 12.60 logs
- Recovery of Lactobacillus acidophilus in Milk fortified with MSM Day 14, initial start data ([1]; […] MSM, Day 14-0): 5.33 logs
- Recovery of Lactobacillus acidophilus in Milk fortified with MSM Day 14, average recovery ([1]; […] MSM, Day 14-24): 9.87 logs
- Recovery of Lactobacillus acidophilus in Milk fortified with MSM Day 14, average recovery ([1]; […] MSM, Day 14-48): 12.32 logs
- Recovery of Lactobacillus acidophilus in Milk fortified with MSM Day 14, average recovery ([1]; […] MSM, Day 14-72): 12.57 logs
- Recovery of Lactobacillus acidophilus in Milk fortified with MSM Day 21, initial start data ([1]; […] MSM, Day 21): 3.47 logs
- Recovery of Lactobacillus acidophilus in Milk fortified with MSM Day 21, average recovery ([1]; […] MSM, Day 21-24): 10.79 logs
- Recovery of Lactobacillus acidophilus in Milk fortified with MSM Day 21, average recovery ([1]; […] MSM, Day 21-48): 12.78 logs
- Recovery of Lactobacillus acidophilus in Milk fortified with MSM Day 21, average recovery ([1]; […] MSM, Day 21-72): 13.10 logs
- Recovery of Lactobacillus acidophilus in Milk fortified with MSM Day 28, initial start data ([1]; […] MSM, Day 28): 1.33 logs
- Recovery of Lactobacillus acidophilus in Milk fortified with MSM Day 28, average recovery ([1]; […] MSM, Day 28-24): 6.37 logs
- Lag Recovery of Lactobacillus acidophilus in Milk fortified with MSM Day 28 ([1]; […] MSM, Day 28-24): 6.37 logs
- Recovery of Lactobacillus acidophilus in Milk fortified with MSM Day 28, average recovery ([1]; […] MSM, Day 28-48): 12.57 logs
- Recovery of Lactobacillus acidophilus in Milk fortified with MSM Day 28, average recovery ([1]; […] MSM, Day 28-72): 12.66 logs
- Day 7 log recovery growth rate increase from start time of zero ([1]; […] MSM, Hour 0): 0.00 logs
- Day 14 log recovery growth rate increase from start time of zero ([1]; […] MSM, Hour 0): 0.00 logs
- Day 21 log recovery growth rate increase from start time of zero ([1]; […] MSM, Hour 0): 0.00 logs
- Day 7 log recovery growth rate increase from start time of zero ([1]; […] MSM, Hour 24): 4.66 logs
- Day 14 log recovery growth rate increase from start time of zero ([1]; […] MSM, Hour 24): 4.54 logs
- Day 21 log recovery growth rate increase from start time of zero ([1]; […] MSM, Hour 24): 7.32 logs
- Day 7 log recovery growth rate increase from start time of zero ([1]; […] MSM, Hour 48): −0.8 logs
- Day 14 log recovery growth rate increase from start time of zero ([1]; […] MSM, Hour 48): 2.45 logs
- Day 21 log recovery growth rate increase from start time of zero ([1]; […] MSM, Hour 48): 2.00 logs
- Day 7 log recovery growth rate increase from start time of zero ([1]; […] MSM, Hour 72): 0.25 logs
- Day 14 log recovery growth rate increase from start time of zero ([1]; […] MSM, Hour 72): 0.26 logs
- Day 21 log recovery growth rate increase from start time of zero ([1]; […] MSM, Hour 72): 0.32 logs
- Day 28 log recovery growth rate increase from start time of zero ([1]; […] MSM, Time 0): 0.00 logs
- Day 28 log recovery growth rate increase from start time of zero ([1]; […] MSM, Time 24): 5.04 logs
- Day 28 log recovery growth rate increase from start time of zero ([1]; […] MSM, Time 48): 6.20 logs
- Day 28 log recovery growth rate increase from start time of zero ([1]; […] MSM, Time 72): 0.09 logs
- Test Product Cytotoxicity (CPE) ([2]; 0.5%): 00
- Test Product Cytotoxicity (CPE) ([2]; 1%): 00
- Test Product Cytotoxicity (CPE) ([2]; 2%): 00
- Test Product Cytotoxicity (CPE) ([2]; 3%): 00
- Test Product Cytotoxicity (CPE) ([2]; 4%): 00
- Test Product Cytotoxicity (CPE) ([2]; 5%): 00
- cytotoxic effect ([2]; MSM 6% through 0.5%): no visible cytotoxic effect
- TC50 ([2]; kills 50% of uninfected cells): approximately 7%
